# Measured values from patent publication US20220142897A1, “Formulation and Use Thereof in the Treatment of Keratosis Pilaris” (priority 2020, published 2022).
# What was measured:
# sebaceous glands [1] = test: Stimulation of sebaceous glands / sebum production by topical DHEA; type: in vivo, human
# Excerpt: The main component of the current invention is DHEA, a steroid hormone. Without being bound by theory, it is hypothesized that DHEA in the current invention serves to simulate the production of sebaceous glands. […] In contrast, the upper limits of DHEA in the current invention can be as high as 100%.
# Daily applications of DHEA can increase the output of sebaceous glands by up to 60% within 3 months. This makes DHEA a particularly viable and effective treatment for increasing sebum output in those with KP. Patients with KP typically have widespread sebaceous gland atrophy in the affected areas of the skin, causing downstream symptoms of skin dryness, inflammation, and could potentially be the root cause of the keratin papules that develop. DHEA also is suspected to help modulate and regulate keratinocyte proliferation. It is suspected that by regulating keratinocytes in the follicular channel, the rate at which keratin blockages forms is reduced.
# sebaceous glands [2] = settings: cited from earlier work
Structure (SMILES),sebum production as observed by softness and oiliness (sebaceous glands [1]; 2% DHEA),sebum production as observed by softness and oiliness (sebaceous glands [1]; DHEA reduced to approximately 0.1%),"stimulation of the sebaceous glands (sebaceous glands [1]; concentrations of DHEA at less than 0.1%, clinical studies)","increase of the output of sebaceous glands (sebaceous glands [2]; daily applications, within 3 months)",safety of continuous topical application (sebaceous glands [2]; low concentrations to avoid systemic circulation),potency to stimulate sebaceous gland to produce sebocytes (sebaceous glands [2]; relative to DHEA)
"C[C@]12CC[C@H](O)CC1=CC[C@@H]1[C@@H]2CC[C@]2(C)C(=O)CC[C@@H]12 [DHEA, dehydroepiandrosterone]",increase in sebum production,Such phenotypes are observed,ineffective,up to 60%,safe,–
"C[C@]12CCC(=O)C[C@@H]1CC[C@@H]1[C@@H]2CC[C@]2(C)[C@@H](O)CC[C@@H]12 [DHT, dihydrotestosterone]",–,–,–,–,–,more potent than DHEA
